Values belong to the molecule of their own block, whether it stands above or below them.
Key:
UGT1A8 = molecular target: T1, UGT1A8 (Homo sapiens, UniProt Q9HAW9); assay: Substrate glucuronidation by recombinant UGT1A8; conditions: UGT1A8 Supersomes 250 μg/ml; 7-HFC 50 μM
T1 sequence (Q9HAW9 26-530): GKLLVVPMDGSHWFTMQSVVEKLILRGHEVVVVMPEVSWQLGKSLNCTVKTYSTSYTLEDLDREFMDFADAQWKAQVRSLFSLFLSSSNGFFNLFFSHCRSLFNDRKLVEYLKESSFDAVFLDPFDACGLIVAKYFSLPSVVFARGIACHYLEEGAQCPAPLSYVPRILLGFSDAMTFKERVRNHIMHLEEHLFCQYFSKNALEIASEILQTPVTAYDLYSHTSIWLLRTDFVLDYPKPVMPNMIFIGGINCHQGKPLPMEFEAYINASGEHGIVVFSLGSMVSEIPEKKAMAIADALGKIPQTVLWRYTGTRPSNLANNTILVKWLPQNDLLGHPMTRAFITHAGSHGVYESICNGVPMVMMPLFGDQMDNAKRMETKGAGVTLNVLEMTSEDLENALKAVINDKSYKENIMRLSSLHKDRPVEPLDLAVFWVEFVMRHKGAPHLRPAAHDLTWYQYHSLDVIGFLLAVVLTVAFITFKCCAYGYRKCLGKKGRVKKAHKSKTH

UGT1A10 [1] = molecular target: T2, UGT1A10 (Homo sapiens, UniProt Q9HAW8); assay: Substrate glucuronidation by recombinant UGT1A10; conditions: 7-HFC 50 μM
T2 sequence (Q9HAW8 26-530): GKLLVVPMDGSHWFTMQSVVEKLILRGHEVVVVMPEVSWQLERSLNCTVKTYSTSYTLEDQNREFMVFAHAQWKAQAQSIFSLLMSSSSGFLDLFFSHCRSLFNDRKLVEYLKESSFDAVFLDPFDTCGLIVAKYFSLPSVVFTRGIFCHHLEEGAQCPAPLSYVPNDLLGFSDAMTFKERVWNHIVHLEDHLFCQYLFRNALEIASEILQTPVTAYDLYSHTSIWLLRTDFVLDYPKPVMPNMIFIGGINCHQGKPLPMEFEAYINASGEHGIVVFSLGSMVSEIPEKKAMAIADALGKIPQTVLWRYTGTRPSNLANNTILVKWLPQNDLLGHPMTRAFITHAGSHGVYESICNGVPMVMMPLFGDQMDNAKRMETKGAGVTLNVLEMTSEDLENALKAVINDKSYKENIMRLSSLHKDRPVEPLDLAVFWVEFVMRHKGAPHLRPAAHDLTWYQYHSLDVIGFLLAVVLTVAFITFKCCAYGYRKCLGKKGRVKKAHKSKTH

[2] = system: UGT enzymes of pooled human jejunum microsomes; assay: Inhibition of zidovudine glucuronidation in pooled human jejunum microsomes; type: biochemical; conditions: inhibitor 50 μM
Description: Increasing the microsomal protein concentration to 1 mg/ml and extending the incubation time to 60 min provided meaningful metabolite levels for inhibition studies.

UGT2B7 = molecular target: T3, UGT2B7 (Homo sapiens, UniProt P16662); conditions: 30 min, 100 μM, pH 7.5
T3 sequence (P16662 24-529): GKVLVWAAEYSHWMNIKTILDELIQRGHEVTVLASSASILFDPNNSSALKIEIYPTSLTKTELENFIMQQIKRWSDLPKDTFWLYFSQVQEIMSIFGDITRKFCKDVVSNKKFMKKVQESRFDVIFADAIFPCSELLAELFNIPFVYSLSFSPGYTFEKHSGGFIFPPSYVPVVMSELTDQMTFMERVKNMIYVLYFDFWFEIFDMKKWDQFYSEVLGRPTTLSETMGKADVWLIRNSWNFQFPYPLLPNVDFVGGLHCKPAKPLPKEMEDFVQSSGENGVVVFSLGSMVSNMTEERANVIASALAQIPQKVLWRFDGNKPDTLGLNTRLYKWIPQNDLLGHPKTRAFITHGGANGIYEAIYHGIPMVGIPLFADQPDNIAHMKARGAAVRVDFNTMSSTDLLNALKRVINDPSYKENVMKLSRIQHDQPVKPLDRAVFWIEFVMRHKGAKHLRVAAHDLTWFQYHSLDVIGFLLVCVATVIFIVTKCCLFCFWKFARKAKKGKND

UGT1A10 [3] = molecular target: T2, UGT1A10
[4] = humans; cited from earlier work
UGT1A4 = UGT1A4 (Homo sapiens, UniProt P22310)
Chain of UGT1A4 (P22310 29-534): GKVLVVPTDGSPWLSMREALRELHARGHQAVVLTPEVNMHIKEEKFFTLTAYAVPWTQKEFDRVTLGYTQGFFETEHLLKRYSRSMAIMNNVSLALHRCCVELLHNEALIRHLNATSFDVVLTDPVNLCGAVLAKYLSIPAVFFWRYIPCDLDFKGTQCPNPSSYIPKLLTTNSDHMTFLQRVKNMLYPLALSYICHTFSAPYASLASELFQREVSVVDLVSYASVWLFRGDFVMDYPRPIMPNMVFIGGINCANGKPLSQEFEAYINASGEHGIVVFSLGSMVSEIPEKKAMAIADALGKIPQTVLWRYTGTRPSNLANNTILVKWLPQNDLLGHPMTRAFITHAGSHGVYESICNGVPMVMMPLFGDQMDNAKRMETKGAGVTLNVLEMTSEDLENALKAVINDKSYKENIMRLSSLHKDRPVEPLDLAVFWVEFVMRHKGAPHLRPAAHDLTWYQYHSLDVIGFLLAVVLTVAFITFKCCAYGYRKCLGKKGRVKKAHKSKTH

UGT1A3 = molecular target: T4, UGT1A3 (Homo sapiens, UniProt P35503)
T4 sequence (P35503 29-534): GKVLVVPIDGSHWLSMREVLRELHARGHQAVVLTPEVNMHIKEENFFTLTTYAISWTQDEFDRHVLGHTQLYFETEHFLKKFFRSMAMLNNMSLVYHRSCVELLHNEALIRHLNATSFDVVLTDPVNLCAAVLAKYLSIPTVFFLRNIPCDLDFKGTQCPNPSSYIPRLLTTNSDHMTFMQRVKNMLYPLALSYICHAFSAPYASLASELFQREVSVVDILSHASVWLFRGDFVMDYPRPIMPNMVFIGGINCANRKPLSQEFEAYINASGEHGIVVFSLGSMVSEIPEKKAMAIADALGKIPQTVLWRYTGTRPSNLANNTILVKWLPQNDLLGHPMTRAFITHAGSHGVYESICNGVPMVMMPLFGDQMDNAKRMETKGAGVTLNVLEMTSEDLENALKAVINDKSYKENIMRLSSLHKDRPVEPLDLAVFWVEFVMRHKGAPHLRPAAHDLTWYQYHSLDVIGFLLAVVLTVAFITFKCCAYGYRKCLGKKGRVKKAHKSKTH

[5] = system: UGT enzymes of human liver microsomes; assay: Inhibition of zidovudine glucuronidation in human liver microsomes; type: biochemical
Description: Compounds were eluted using a binary solvent gradient system where solvent A was dilute phosphoric acid (pH 3) and solvent B was acetonitrile.
Standardized incubations utilized 500 μM zidovudine substrate, 1 mg/ml microsomal protein, 5 mM UDPGA and a 30 min incubation time. […] Int.

7-HFC glucuronidation rate (UGT1A8): 486 ± 5 pmol/min/mg protein
7-HFC glucuronidation rate (UGT1A10 [1]; UGT1A10 Bacculosomes 250 μg/ml): 553 ± 40 pmol/min/mg protein
7-HFC glucuronidation rate (UGT1A10 [1]; UGT1A10 Supersomes 250 μg/ml): 460 ± 2 pmol/min/mg protein
SMILES: O=c1cc(C(F)(F)F)c2ccc(O)cc2o1 [7-HFC, 7-hydroxy-4-(trifluoromethyl)coumarin]

residual metabolism (percentage of control), zidovudine [2]: 42 (3) %
SMILES: CC/C(=C(/CC)c1ccc(O)cc1)c1ccc(O)cc1 [Diethylstilbestrol, reference compound]

LG1/LG2 (UGT2B7): 12
labetalol metabolite LG1, peak area normalized to internal standard (UGT2B7): 993 (52)
labetalol metabolite LG2, peak area normalized to internal standard (UGT2B7): 81 (3)
labetalol metabolism, in words (UGT1A10 [3]): No detectable metabolism was observed
labetalol metabolism, in words (UGT1A4): No detectable metabolism was observed
labetalol metabolism, in words (UGT1A3): No detectable metabolism was observed
SMILES: CC(CCc1ccccc1)NCC(O)c1ccc(O)c(C(N)=O)c1 (stereo not drawn) [Labetalol, labetalol]
absolute oral bioavailability [4]: 25-30%

SMILES: O=c1c(O)c(-c2ccc(O)c(O)c2)oc2cc(O)cc(O)c12 [Quercetin]
inhibition of zidovudine metabolism, in words [5]: ineffective
